Results reported in patent publication US8614327B2 (Vertex Pharmaceuticals Incorporated, priority 2004, dated 2013).
One block for each compound: values may come before it.

Biological target: T1, ΔF508-CFTR (Homo sapiens, UniProt P13569, DEL508-508)
T1 construct: expressed in transfected cells
Experiment: Membrane potential optical (FRET/VIPR) assay, identification of potentiator compounds
Format: cell-based
Settings: Table 3, assay not given; for % Activity: relative efficacy
Method in brief: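 NIH3T3 mouse fibroblasts stably expressing ΔF508-CFTR, temperature-corrected 24 h at 27° C., read on VIPR by FRET between CC2-DMPE and DiSBAC2(3). Potentiators identified in a double-addition format, first adding chloride-free (gluconate) medium with or without compound.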

T1 sequence (P13569 with tags, fused parts or gaps DEL508-508): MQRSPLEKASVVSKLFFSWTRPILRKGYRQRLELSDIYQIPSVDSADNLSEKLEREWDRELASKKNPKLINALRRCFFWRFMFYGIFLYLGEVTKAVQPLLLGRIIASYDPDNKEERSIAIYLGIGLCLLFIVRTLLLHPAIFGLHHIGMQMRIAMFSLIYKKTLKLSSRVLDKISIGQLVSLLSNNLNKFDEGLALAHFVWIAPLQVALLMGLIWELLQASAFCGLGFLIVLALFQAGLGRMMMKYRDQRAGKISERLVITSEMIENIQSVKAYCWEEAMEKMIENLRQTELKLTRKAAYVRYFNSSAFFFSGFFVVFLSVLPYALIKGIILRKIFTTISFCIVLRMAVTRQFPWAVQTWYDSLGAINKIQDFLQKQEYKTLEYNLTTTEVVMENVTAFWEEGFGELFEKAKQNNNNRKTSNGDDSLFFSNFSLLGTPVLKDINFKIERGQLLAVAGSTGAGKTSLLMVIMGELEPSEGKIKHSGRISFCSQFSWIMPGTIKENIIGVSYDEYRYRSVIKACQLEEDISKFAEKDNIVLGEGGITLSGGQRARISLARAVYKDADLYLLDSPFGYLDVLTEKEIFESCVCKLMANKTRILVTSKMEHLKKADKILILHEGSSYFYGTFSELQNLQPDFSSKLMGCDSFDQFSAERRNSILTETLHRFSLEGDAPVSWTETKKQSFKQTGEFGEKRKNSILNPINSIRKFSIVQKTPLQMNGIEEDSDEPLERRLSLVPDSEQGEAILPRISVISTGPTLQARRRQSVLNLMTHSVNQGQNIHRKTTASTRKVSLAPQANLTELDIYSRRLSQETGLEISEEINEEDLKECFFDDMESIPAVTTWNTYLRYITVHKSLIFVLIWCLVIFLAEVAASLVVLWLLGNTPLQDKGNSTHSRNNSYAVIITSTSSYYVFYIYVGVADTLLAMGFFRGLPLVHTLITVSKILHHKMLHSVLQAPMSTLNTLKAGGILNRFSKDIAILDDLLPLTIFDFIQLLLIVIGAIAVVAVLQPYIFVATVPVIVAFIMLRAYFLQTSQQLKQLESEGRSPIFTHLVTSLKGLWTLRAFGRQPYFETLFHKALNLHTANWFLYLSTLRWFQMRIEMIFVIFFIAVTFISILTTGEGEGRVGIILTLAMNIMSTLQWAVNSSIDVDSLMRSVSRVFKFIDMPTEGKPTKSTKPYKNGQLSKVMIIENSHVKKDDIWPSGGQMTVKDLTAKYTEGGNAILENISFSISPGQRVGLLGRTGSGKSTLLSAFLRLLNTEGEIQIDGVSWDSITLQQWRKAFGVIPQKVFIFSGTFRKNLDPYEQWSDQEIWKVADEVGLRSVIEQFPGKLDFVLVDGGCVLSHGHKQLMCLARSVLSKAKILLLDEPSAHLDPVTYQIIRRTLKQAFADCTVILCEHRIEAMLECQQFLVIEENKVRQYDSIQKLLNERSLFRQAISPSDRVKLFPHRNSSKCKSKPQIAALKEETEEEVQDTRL

SMILES: CC(C)(C)c1cc(C(C)(C)C)c(NC(=O)c2c[nH]c3ccc(Cl)cc3c2=O)cc1O [Compound 623, 6-chloro-N-(5-hydroxy-2,4-ditert-butyl-phenyl)-4-oxo-1H-quinoline-3-carboxamide]
EC50: < 10 µM
% Activity: ++ (between 25% to 100%)

SMILES: Cc1ccc2[nH]cc(C(=O)Nc3cc(O)c(C4(C)CCCCC4)cc3F)c(=O)c2c1 [Compound 624, N-[2-fluoro-5-hydroxy-4-(1-methylcyclohexyl)-phenyl]-6-methyl-4-oxo-1H-quinoline-3-carboxamide]
EC50: < 10 µM
% Activity: ++ (between 25% to 100%)

SMILES: Cc1cccc2c(=O)c(C(=O)Nc3cc(O)c(C(C)(C)C)cc3F)c[nH]c12 [Compound 625, N-(2-fluoro-5-hydroxy-4-tert-butyl-phenyl)-8-methyl-4-oxo-1H-quinoline-3-carboxamide]
EC50: < 10 µM
% Activity: + (<25%)

SMILES: Cc1cccc2[nH]cc(C(=O)Nc3ccc(N4CC[C@H](F)C4)cc3C(F)(F)F)c(=O)c12 [Compound 626, (S)-N-(4-(3-fluoropyrrolidin-1-yl)-2-(trifluoromethyl)phenyl)-5-methyl-4-oxo-1,4-dihydroquinoline-3-carboxamide]
EC50: < 10 µM
% Activity: ++ (between 25% to 100%)

SMILES: CC(CO)(CO)c1ccc(NC(=O)c2c[nH]c3ccc(F)cc3c2=O)cc1 [Compound 627, 6-fluoro-N-[4-[2-hydroxy-1-(hydroxymethyl)-1-methyl-ethyl]phenyl]-4-oxo-1H-quinoline-3-carboxamide]
EC50: < 10 µM
% Activity: + (<25%)

SMILES: O=C(Nc1ccc(OC(F)(F)F)cc1Cl)c1c[nH]c2ccccc2c1=O [Compound 628, N-[2-chloro-4-(trifluoromethoxy)phenyl]-4-oxo-1H-quinoline-3-carboxamide]
EC50: < 10 µM
% Activity: ++ (between 25% to 100%)

SMILES: CC(C)(C)OC(=O)[C@@H]1CCCN1c1ccc(NC(=O)c2c[nH]c3ccccc3c2=O)c(C(F)(F)F)c1 [Compound 629, (S)-tert-butyl 1-(4-(4-oxo-1,4-dihydroquinoline-3-carboxamido)-3-(trifluoromethyl)phenyl)pyrrolidine-2-carboxylate]
EC50: < 10 µM
% Activity: ++ (between 25% to 100%)

SMILES: O=C(Nc1cc(C(F)(F)F)ccc1C(F)(F)F)c1c[nH]c2ccccc2c1=O [Compound 630, N-[2,5-bis(trifluoromethyl)phenyl]-4-oxo-1H-quinoline-3-carboxamide]
EC50: < 10 µM
% Activity: ++ (between 25% to 100%)

SMILES: COC(=O)[C@]1(C)CCCN1c1ccc(NC(=O)c2c[nH]c3ccccc3c2=O)c(C(F)(F)F)c1 [Compound 631, (S)-methyl 2-methyl-1-(4-(4-oxo-1,4-dihydroquinoline-3-carboxamido)-3-(trifluoromethyl)phenyl)pyrrolidine-2-carboxylate]
EC50: < 10 µM
% Activity: +++ (>100%)

SMILES: CC(C)(C)c1cc2cc[nH]c2cc1NC(=O)c1c[nH]c2cc(OC(F)(F)F)ccc2c1=O [Compound 632, 4-oxo-N-(5-tert-butyl-1H-indol-6-yl)-7-(trifluoromethoxy)-1H-quinoline-3-carboxamide]
EC50: < 10 µM
% Activity: ++ (between 25% to 100%)

SMILES: CC(C)(C)c1ccc(NC(=O)c2c[nH]c3cccc(O)c3c2=O)cc1O [Compound 633, 5-hydroxy-N-(3-hydroxy-4-tert-butyl-phenyl)-4-oxo-1H-quinoline-3-carboxamide]
EC50: < 10 µM
% Activity: ++ (between 25% to 100%)

SMILES: O=C(Nc1ccc(N2CCC[C@H]2CO)cc1C(F)(F)F)c1c[nH]c2ccccc2c1=O [Compound 634, (S)-N-(4-(2-(hydroxymethyl)pyrrolidin-1-yl)-2-(trifluoromethyl)phenyl)-4-oxo-1,4-dihydroquinoline-3-carboxamide]
EC50: < 10 µM
% Activity: ++ (between 25% to 100%)

SMILES: O=C(Nc1ccc(C(F)(F)F)cc1Cl)c1c[nH]c2cccc(O)c2c1=O [Compound 635, N-[2-chloro-4-(trifluoromethyl)phenyl]-5-hydroxy-4-oxo-1H-quinoline-3-carboxamide]
EC50: < 10 µM
% Activity: ++ (between 25% to 100%)

SMILES: O=C(Nc1ccc(C(F)(F)F)cc1Cl)c1c[nH]c2ccc(F)cc2c1=O [Compound 636, N-[2-chloro-4-(trifluoromethyl)phenyl]-6-fluoro-4-oxo-1H-quinoline-3-carboxamide]
EC50: < 10 µM
% Activity: + (<25%)

SMILES: Cc1cccc2c(=O)c(C(=O)Nc3ccc(C(C)C)cc3C(F)(F)F)c[nH]c12 [Compound 637, N-[4-isopropyl-2-(trifluoromethyl)phenyl]-8-methyl-4-oxo-1H-quinoline-3-carboxamide]
EC50: < 10 µM
% Activity: + (<25%)

SMILES: CC(C)(C)c1cc(F)c(NC(=O)c2c[nH]c3c(C(F)(F)F)cccc3c2=O)cc1O [Compound 638, N-(2-fluoro-5-hydroxy-4-tert-butyl-phenyl)-4-oxo-8-(trifluoromethyl)-1H-quinoline-3-carboxamide]
EC50: < 10 µM
% Activity: + (<25%)

Results, then the compound that gave them:

EC50: < 10 µM
% Activity: ++ (between 25% to 100%)
SMILES: CC(C)N1CCN(c2ccc(NC(=O)c3c[nH]c4ccccc4c3=O)c(C(F)(F)F)c2)CC1 [Compound 639, N-[4-(4-isopropylpiperazin-1-yl)-2-(trifluoromethyl)phenyl]-4-oxo-1H-quinoline-3-carboxamide]

EC50: < 10 µM
% Activity: +++ (>100%)
SMILES: Cc1ccc2c(=O)c(C(=O)Nc3cc(O)c(C(C)(C)C)cc3C(C)(C)C)c[nH]c2c1 [Compound 640, N-(5-hydroxy-2,4-ditert-butyl-phenyl)-7-methyl-4-oxo-1H-quinoline-3-carboxamide]

EC50: 10 to 25 µM
% Activity: + (<25%)
SMILES: CCOc1cccc2c(=O)c(C(=O)Nc3cc4[nH]ccc4cc3C(C)(C)C)c[nH]c12 [Compound 641, 8-ethoxy-4-oxo-N-(5-tert-butyl-1H-indol-6-yl)-1H-quinoline-3-carboxamide]

EC50: < 10 µM
% Activity: ++ (between 25% to 100%)
SMILES: COc1ccc2c(=O)c(C(=O)Nc3ccc(N4CCC[C@@H]4C)cc3C(F)(F)F)c[nH]c2c1 [Compound 642, (S)-7-methoxy-N-(4-(2-methylpyrrolidin-1-yl)-2-(trifluoromethyl)phenyl)-4-oxo-1,4-dihydroquinoline-3-carboxamide]

EC50: < 10 µM
% Activity: ++ (between 25% to 100%)
SMILES: Cc1cccc2[nH]cc(C(=O)Nc3ccc(N4CCCC(C)C4)cc3C(F)(F)F)c(=O)c12 (stereo not shown) [Compound 643, 5-methyl-N-[4-(3-methyl-1-piperidyl)-2-(trifluoromethyl)phenyl]-4-oxo-1H-quinoline-3-carboxamide]

EC50: < 10 µM
% Activity: + (<25%)
SMILES: Cc1cccc2c(=O)c(C(=O)Nc3cc4[nH]ccc4cc3C(C)(C)C)c[nH]c12 [Compound 644, 8-methyl-4-oxo-N-(5-tert-butyl-1H-indol-6-yl)-1H-quinoline-3-carboxamide]

EC50: < 10 µM
% Activity: ++ (between 25% to 100%)
SMILES: CC(C)(C)c1ccc(NC(=O)c2c[nH]c3ccccc3c2=O)cc1F [Compound 645, N-(3-fluoro-4-tert-butyl-phenyl)-4-oxo-1H-quinoline-3-carboxamide]

EC50: < 10 µM
% Activity: ++ (between 25% to 100%)
SMILES: CC(C)(C)c1cc2cc[nH]c2cc1NC(=O)c1c[nH]c2cc(F)c(F)cc2c1=O [Compound 646, 6,7-difluoro-4-oxo-N-(5-tert-butyl-1H-indol-6-yl)-1H-quinoline-3-carboxamide]

EC50: < 10 µM
% Activity: ++ (between 25% to 100%)
SMILES: Cc1cc(C2CCCCC2)ccc1NC(=O)c1c[nH]c2ccccc2c1=O [Compound 647, N-(4-cyclohexyl-2-methyl-phenyl)-4-oxo-1H-quinoline-3-carboxamide]

EC50: < 10 µM
% Activity: ++ (between 25% to 100%)
SMILES: CCc1cc(C(C)(C)C)c(O)cc1NC(=O)c1c[nH]c2ccc(F)cc2c1=O [Compound 649, N-(2-ethyl-5-hydroxy-4-tert-butyl-phenyl)-6-fluoro-4-oxo-1H-quinoline-3-carboxamide]

EC50: < 10 µM
% Activity: ++ (between 25% to 100%)
SMILES: O=C(Nc1ccc(C(F)(F)F)c(O)c1)c1c[nH]c2ccc(F)cc2c1=O [Compound 650, 6-fluoro-N-[3-hydroxy-4-(trifluoromethyl)phenyl]-4-oxo-1H-quinoline-3-carboxamide]

EC50: < 10 µM
% Activity: ++ (between 25% to 100%)
SMILES: O=C(Nc1ccc(C2CCCCC2)c(O)c1)c1c[nH]c2ccc(F)cc2c1=O [Compound 651, N-(4-cyclohexyl-3-hydroxy-phenyl)-6-fluoro-4-oxo-1H-quinoline-3-carboxamide]

EC50: < 10 µM
% Activity: ++ (between 25% to 100%)
SMILES: CC(C)(C)c1cc(C(C)(C)C)c(NC(=O)c2c[nH]c3cc(O)ccc3c2=O)cc1O [Compound 652, 7-hydroxy-N-(5-hydroxy-2,4-ditert-butyl-phenyl)-4-oxo-1H-quinoline-3-carboxamide]

EC50: < 10 µM
% Activity: ++ (between 25% to 100%)
SMILES: O=C(Nc1cc(OCc2ccccc2)c(C2CCCCC2)cc1C(F)(F)F)c1c[nH]c2ccccc2c1=O [Compound 654, N-[5-benzyloxy-4-cyclohexyl-2-(trifluoromethyl)phenyl]-4-oxo-1H-quinoline-3-carboxamide]

EC50: < 10 µM
% Activity: ++ (between 25% to 100%)
SMILES: O=C(Nc1ccc(N2CC[C@H](O)C2)cc1C(F)(F)F)c1c[nH]c2ccccc2c1=O [Compound 655, (S)-N-(4-(3-hydroxypyrrolidin-1-yl)-2-(trifluoromethyl)phenyl)-4-oxo-1,4-dihydroquinoline-3-carboxamide]

EC50: < 10 µM
% Activity: ++ (between 25% to 100%)
SMILES: CC(C)(C)c1cc2cc[nH]c2cc1NC(=O)c1c[nH]c2cccc(F)c2c1=O [Compound 656, 5-fluoro-4-oxo-N-(5-tert-butyl-1H-indol-6-yl)-1H-quinoline-3-carboxamide]
